Patent publication US12098395B2, “Polypeptide with function of targeting recognition of immune cells and application thereof” (Keyangle Life Technology Co., Ltd., priority 2018, dated 2024)
No end group written: not given here. code X = not defined here

How the values were obtained:
[1] = test system: mouse peritoneal macrophages; experiment: In vivo fluorescent labeling of macrophages in a mouse abdominal cavity; design: species or system Kunming mice; details: for recognition of macrophages in vivo: conclusion from Table 1, mouse peritoneal macrophages; for fluorescent labeling of macrophages extracted from the mouse abdominal cavity: labeled in vivo by intraperitoneal injection, cells extracted after 4 hours, Nucblue double-stain
Protocol: Dilute 300 μL of 50 μM EK24 fluorescent probe solution with serum-free DMEM incomplete medium to obtain 1 mL of solution, then inject into the abdominal cavity of 5-8 weeks old Kunming mice. After 4 hours, inject 5 mL of 1×PBS and massage. After 10 minutes, sacrifice the mice by cervical vertebra dislocation. Cut the abdominal cavity skin of the mice, pierce the abdominal wall muscle by a syringe, and extract the fluid in the abdominal cavity of the mice. Centrifuge the extracted peritoneal fluid at 1000 rpm for 5 min, wash twice with 1×PBS. Add appropriate amount of cells to a 96-well plate and double-stain with a nuclear dye Nucblue (Invitrogen). Observe under fluorescence microscope (light source 10%, exposure 200 ms, gain 5) after the suspended cells were settled down at the bottom of the plate.
Table 1 lists probes, which contain the polypeptide fragments from the C-terminal fragments of Triokinases/FMN cyclases of different species and were prepared by a similar process as described in Examples 1 and 2, and in vivo imaging results of mouse peritoneal macrophages using these probes.

[2] = test system: mouse macrophage cell line RAW264.7; experiment: In vitro fluorescence labeled staining of a mouse macrophage cell line; format: cell-based; details: 10 μM probe, 1 h incubation
Protocol: Culture the mouse macrophage cell line RAW264.7 in a 96-well plate, wash the wells once with 1×PBS buffer or a serum-free DMEM incomplete medium, remove the washing liquid, add EK24 solution of 10 μM which had been diluted with 100 μL of serum-free DMEM incomplete medium, and incubate in a cell culture incubator for 1 h. After that, wash the wells twice with 1×PBS buffer or the serum-free DMEM incomplete medium. Then, add DMEM complete medium containing 10% FBS and 1% streptomycin-penicillin, and double-stain the cells using nuclear dye Nucblue, and observe under EVOS® FL Auto fluorescence microscope (Life Technologies, light source 10%, exposure 200 ms, gain 5).

[3] = test system: cultured macrophages isolated from mouse peritoneal cavity; experiment: In vitro fluorescent labeling of cultured macrophages isolated from mouse peritoneal cavity, co-staining with F4/80 antibody; format: cell-based; details: 10 μM EK24 premixed with F4/80 antibody, 1 h at 37° C.
Protocol: Inject 5 mL of serum-free DMEM incomplete medium into the abdominal cavity of 5 to 8 weeks old mice, massage the abdominal cavity gently for 10 min, and sacrifice the mice by cervical vertebra dislocation. Extract the fluid from the abdominal cavity gently with a syringe, inject into a 5 mL centrifuge tube and centrifuge at 1000 rpm for 5 min, remove the supernatant, and resuspend the collected ex-vivo cells in DMEM/F12 medium containing 10% FBS, then add into a 96-well plate for culture. Generally, if cells are taken intraperitoneally for in vitro culture, macrophages would tend to adhere to bottom of the well, and other cells would be washed off. The cells were cultured for more than 2 days until the cells attached the bottom firmly. At this time, the cells remaining in the wells were basically macrophages. Select two wells, one as a control and the other as an experimental well. The cells of the control were nuclear stained with Nucblue. The experimental well was added with a premix of AlexaFluor®488 anti-mouse F4/80 antibody (Biolegend) and EK24 fluorescent probe, and then incubated for 1 h at 37° C. The premix contained 10 μM of EK24 solution and 2 μL of Alexa Fluor®488 anti-mouse F4/80 antibody diluted with 100 μL of serum-free DMEM incomplete medium. […] The cells were observed under a fluorescence microscope (20×objective lens, light source 10%, exposure 200 ms, gain 5).

[4] = test system: primary macrophages from rat peritoneal cavity; experiment: In vitro fluorescent labeling of primary macrophages from rat peritoneal cavity; format: cell-based, SD rats; details: cultured more than 2 days
Protocol: With the same process as in Example 5, extract cells from the abdominal cavity of 5 to 8 weeks old SD rats using 20 mL serum-free DMEM incomplete medium and culture the cells in a 96-well plate. After culturing for more than 2 days, until the cells attached the bottom firmly, a well was selected and added with EK24 fluorescent probe for incubation. Then the cells were observed under a fluorescence microscope (20×, light source 10%, exposure 200 ms, gain 5).

[5] = test system: monocyte precursors from rat bone marrow; experiment: In vitro fluorescent labeling of rat primary monocyte precursors; format: cell-based
From the text: With a similar process to Example 7, mononuclear cell precursors from rat femoral bone marrow were taken and cultured, and then labeled by using EK24 fluorescent probe and Nucblue. Then the cells were observed under a fluorescence microscope (20×, light source 10%, exposure 200 ms, gain 5).

[6] = test system: bone marrow monocyte precursors of New Zealand White Rabbit; experiment: In vitro fluorescent labeling of primary monocyte precursors of New Zealand White Rabbit; format: cell-based
From the text: With a similar process to Example 7, bone marrow monocyte precursors of New Zealand White Rabbit were taken and cultured, then labeled by using EK24 fluorescent probe and Nucblue. Then the cells were observed under a fluorescence microscope (20×, light source 10%, exposure 200 ms, gain 5).

[7] = test system: cultured peritoneal macrophages and mesenteric digestive cells; experiment: Selective labeling of cultured peritoneal macrophages among cells released from enzyme-digested mesenterium; format: cell-based, Kunming mice; details: peritoneal cells and trypsin-digested mesenteries cultured 3 days
Protocol: Take 5 to 8 week-old Kunming mice, inject intraperitoneally with 5 mL of serum-free DMEM incomplete medium. After 1 hour, sacrifice the mice by cervical vertebra dislocation. Make an incision on the skin of abdominal cavity, pierce the abdominal wall muscle using a syringe, and extract the fluid in the abdominal cavity of the mice. Wash twice with 1×PBS, collect peritoneal cells by centrifugation. Also take the mesenteries of the Kunming mice and purge twice with 1×PBS in centrifuge tubes. Incubate the obtained peritoneal cells and mesenteries in 0.25% trypsin solution and digest for 30 minutes. Enrich the cells by centrifugation, and then culture for 3 days in a 96-well plate using F12/DMEM culture solution containing 10% FBS and 1% streptomycin-penicillin. Referring to Example 5, label with the EK24 fluorescent probe and Nucblue. Then the cells were observed under a fluorescence microscope (20×, light source 10%, exposure 200 ms, gain 5).

[8] = test system: macrophages on mouse abdominal wall; experiment: In vivo fluorescent labeling of macrophages on mouse abdominal wall with CD68 antibody co-staining; details: in vivo injection, abdominal wall muscle removed
Protocol: Referring to Example 4, using the same drug injection process, inject EK24, and FITC anti-mouse CD68 antibody (Biolegend) which was diluted with PBS from 2 μL to 500 μL. Remove mouse abdominal wall muscle for Nucblue double-staining and then observing under a fluorescence microscope (20×, light source 50%, exposure 200 ms, gain 5).

[9] = test system: monocyte precursors from mouse bone marrow; experiment: Fluorescence labeling of mouse primary monocyte precursors at different incubation times; format: cell-based; details: incubating only for 10 min
Protocol: Referring to Example 7, using the same treatment process, the monocyte precursors from mouse bone marrow were obtained. After culturing for 6 days, the cultured cells were labeled with […] fluorescent probe over different incubation times. Then the cells were observed under a fluorescence microscope (20×, light source 20%, exposure 200 ms, gain 5).
Nucblue was further used for nuclear staining. In each of FIGS. 18A, 18B, 18C, and 18D, i) is an image labeled with the […] fluorescent probe (shown in red in the original fluorescence color image), and ii) is an image obtained by nuclear staining with Nucblue (shown in blue in the original fluorescence color image), and iii) is a merged image of i) and ii).

Row | Substance | recognition of macrophages in vivo [1] | fluorescent labeling of macrophages extracted from the mouse abdominal cavity [1] | other results
1 | LQPDPGAVAAAAVLRAVLEGLQG-Y (LQPDPGAVAAAAVLRAVLEGLQGY; also: C-terminal reporter Y, nature not defined) [LK24, Chicken Triokinase/FMN cyclase C-terminal peptide probe, Y = reporter or cysteine/lysine + reporter] | can effectively recognize macrophages in vivo | can be labeled | 
2 | EQPDPGAVAAAAILRAILEVLQS-Y (not fully specified (C-terminus)) [EK24, Human/rhesus Triokinase/FMN cyclase C-terminal peptide; Y is lysine plus rhodamine fluorescent labeling group on the lysine side chain] | can effectively recognize macrophages in vivo | can be labeled | fluorescent labeling of RAW264.7 cells [2]: can be labeled; co-localization of probe label with F4/80 antibody label [3]: co-localized on the same cells; labeling of in vitro cultured primary macrophages from rat peritoneal cavity [4]: can effectively label; labeling of monocyte precursors from rat bone marrow mesenchyme [5]: capable of labeling; labeling of monocyte precursors from New Zealand White Rabbit bone marrow mesenchyme [6]: capable of labeling; staining of macrophages in mixed culture [7]: only stains macrophages; staining of non-macrophages in mixed culture [7]: not stain non-macrophages; labeling of macrophages on mouse abdominal wall [8]: can be labeled; labeling of other cells of mouse abdominal wall [8]: cannot be labeled
3 | X-TKNMEAGAGRASYISSARLEQPDPGAVAAAAILRAILEVLQS ({code X}-TKNMEAGAGRASYISSARLEQPDPGAVAAAAILRAILEVLQS; reading uncertain; also: N-terminal reporter X, nature not defined) [TS42, Human Triokinase/FMN cyclase C-terminal peptide probe, X = reporter or cysteine/lysine + reporter] | can effectively recognize macrophages in vivo | can be labeled | 
4 | X-EDQPDPGAVAAAAILRAILEVLQS ({code X}-EDQPDPGAVAAAAILRAILEVLQS; reading uncertain; also: N-terminal reporter X, nature not defined, printed as X-EDQPDPGAVAAAAILRAILEVLQS) [KS24, Human Triokinase/FMN cyclase C-terminal peptide probe, X = reporter or cysteine/lysine + reporter (rhodamine or FITC)] | can effectively recognize macrophages in vivo | can be labeled | fluorescence detection with microscope [9]: can be even detected
5 | LEQPDPGAVAAAAILRAILE-Y (LEQPDPGAVAAAAILRAILEY; also: C-terminal reporter Y, nature not defined) [LEK21, Human Triokinase/FMN cyclase C-terminal peptide probe, Y = reporter or cysteine/lysine + reporter] | can effectively recognize macrophages in vivo | can be labeled | 
6 | X-KNMEAGAGRASYISSARLEQPDPGAVAAAAILRAIL ({code X}-KNMEAGAGRASYISSARLEQPDPGAVAAAAILRAIL; reading uncertain; also: N-terminal reporter X, nature not defined) [KnNL36, Human Triokinase/FMN cyclase C-terminal peptide probe, X = reporter or cysteine/lysine + reporter] | can effectively recognize macrophages in vivo | can be labeled | 
7 | X-DQPDPGAVAAAAIFRAILEVLQTKAA ({code X}-DQPDPGAVAAAAIFRAILEVLQTKAA; reading uncertain; also: N-terminal reporter X, nature not defined) [r-KA27, Rat Triokinase/FMN cyclase C-terminal peptide probe, X = reporter or cysteine/lysine + reporter] | can effectively recognize macrophages in vivo | can be labeled | 
8 | X-DQPDPGAVAAAAILRTILEVLQSQGV ({code X}-DQPDPGAVAAAAILRTILEVLQSQGV; reading uncertain; also: N-terminal reporter X, nature not defined) [d-KV27, Dog Triokinase/FMN cyclase C-terminal peptide probe, X = reporter or cysteine/lysine + reporter] | can effectively recognize macrophages in vivo | can be labeled | 
9 | X-DQPDPGAVAAAAILRAILEVLQSQGA ({code X}-DQPDPGAVAAAAILRAILEVLQSQGA; reading uncertain; also: N-terminal reporter X, nature not defined) [b-KA27, Pig and cattle Triokinase/FMN cyclase C-terminal peptide probe, X = reporter or cysteine/lysine + reporter] | can effectively recognize macrophages in vivo | can be labeled | 
